The values below are quoted from earlier work in patent US20110286960A1, “CANCER THERAPY BY DOCETAXEL AND GRANULOCYTE COLONY-STIMULATING FACTOR (G-CSF)” (OPTIMATA LTD., priority 2008, published 2011).

The conditions of data set [1]: Baker et al., 2004, mean ± STD.
Data set [2] concerns neutrophils. The following applies: for nadir of neutrophil level: human, in vivo.
Data set [3] has as its system neutrophils. The following applies: G-CSF treatment one day post-chemotherapy.
The mark [4] stands for this setting: docetaxel clinical trial results (17, 28).

Read-outs that look alike come from different tables or passages of the source.

On to `CC(=O)O[C@@]12CO[C@@H]1C[C@H](O)[C@@]1(C)C(=O)[C@H](O)C3=C(C)[C@@H](OC(=O)[C@H](O)[C@@H](NC(=O)OC(C)(C)C)c4ccccc4)C[C@@](O)([C@@H](OC(=O)c4ccccc4)[C@H]21)C3(C)C` [Docetaxel], for which the “docetaxel clearance, CYP3A-affected clinically observed range” value was 5.4-29.1 Uhr/m^2. Moreover, in data set [1] (35 mg/m^2), the AUC was 1320 ± 420 ng·h/mL, the Clearance is recorded as 29.10 ± 10.20 L/h*m^2, the Cmax is 1850 ± 730 ng/mL and the Terminal half life is recorded as 15.60 ± 12.00 h. For the same molecule, in data set [1] (100 mg/m^2), the AUC is 5620 ± 2120 ng·h/mL, the Clearance is 19.60 ± 5.60 L/h*m^2, the Cmax was 4150 ± 1350 ng/mL and the Terminal half life was 17.20 ± 6.20 h. Moreover, under “CYP3A inter-individual variability (27)”, the “docetaxel clearance, observed range” value is 5.4-29.1 L/hr/m^2. The “patients suffering grade 3/4 neutropenia” value in the data set on neutrophils [2] (14 patients, weekly docetaxel 40-45 mg/m^2, three consecutive weeks in cycles of four weeks (38)) is “Half”. In addition, in the data set on neutrophils [2] (setting [4]), the “nadir recorded on days” value is 6 to 10 days and the “recovery to baseline recorded on days” value is 16 to 22 days. Also, in the data set with neutrophils [2] (docetaxel dose up to 145 mg/m^2, as reported in (36)), the neutropenia result was “acceptable neutropenia”. For the same molecule, the “patients suffering grade 3/4 neutropenia” value in the data set with neutrophils [2] (patients receiving 30-35 mg/m2/week (38)) was “none”.

Take `CCc1c2c(nc3ccc(OC(=O)N4CCC(N5CCCCC5)CC4)cc13)-c1cc3c(c(=O)n1C2)COC(=O)[C@]3(O)CC` [Irinotecan]: the “nadir of neutrophil level” value with neutrophils [2] is 9 days.

On to `CC[C@]12C=CCN3CC[C@@]4(c5cc([C@@]6(C(=O)OC)C[C@@H]7C[C@@H](C(C)(F)F)CN(Cc8c6[nH]c6ccccc86)C7)c(OC)cc5N(C)[C@H]4[C@@](O)(C(=O)OC)[C@@H]1OC(C)=O)[C@@H]32` [vinflunine], for which the “nadir of neutrophil level” value in the data set on neutrophils [2] was 20 days.

B1: G-CSF: Granulocyte Colony-Stimulating Factor, neutropenia alleviating support therapy (protein, UniProt P09919 31-207, looked up)
Granulocyte …: TPLGPASSLPQSFLLKCLEQVRKIQGDGAALQEKLVSECATYKLCHPEELVLLGHSLGIPWAPLSSCPSQALQLAGCLSQLHSGLFLYQGLLQALEGISPELGPTLDTLQLDVADFATTIWQQMEELGMAPALQPTQGAMPAFASAFQRRAGGVLVASHLQSFLEVSYRVLRHLAQP
With B1, the effect on neutropenia result in the data set with neutrophils [3] was “speeds up and aggravates neutropenia”. In addition, the “grade 4 neutropenia reported” value with neutrophils [2] (G-CSF post-docetaxel, locally advanced breast cancer (10) or advanced NSCLC patients (11)) is on record as “No grade 4 neutropenia”.
